One may read the EC50 as the midpoint of the concentration-response curve.

Read-outs that look alike come from different tables or passages of the source. Where only a bound is given, the exact number is not on record here.

One assay concerns the target T1, FKBP-FRB* mcCAR CD19 (Homo sapiens, UniProt P62942).
T1 construct: expressed in transfected cells; host or cells: T cells, mRNA electroporation
Kind of assay: AP21967 switch-on: surface detection and dose response, CD19 targeting engineered CAR (Fab'2 detection). Format: cell-based.

For another assay, the system named is Daudi CD19 positive. Description: Flow cytometry-based cytotoxicity assay of FKBP-FRB* mcCAR CD19 T-cells with AP21967. Format: cell-based. The settings on record: for EC50: Homo sapiens, Daudi, dose response 0, 1, 5, 10, 33, 100 nM. As to the method:
The cytolytic activity of engineered T-cells endowed with the FKBP-FRB* mcCAR CD19 from example 2, was assessed using a flow cytometry-based cytotoxicity assay. In this assay target cells presenting the CAR target antigen (Daudi CD19 positive) are labelled with CellTrace™ CFSE or and control cells with CellTrace™ violet.
The whole cell population was recovered, washed in PBS and labeled with eFluor780 viability marker before being fixed by 2% PFA. Fixed cells were analyzed by flow cytometry to determine their viability. Flow cytometry and data analysis were performed as described in example 1.
The level of targeted cell killing also correlated with the level of CAR detection (FIG. 9).

Another assay deals with T2, FKBP-FRB* scCAR (Homo sapiens, UniProt P62942).
T2 construct: expressed in transfected cells
T2 sequence (P62942 with tags, fused parts or gaps): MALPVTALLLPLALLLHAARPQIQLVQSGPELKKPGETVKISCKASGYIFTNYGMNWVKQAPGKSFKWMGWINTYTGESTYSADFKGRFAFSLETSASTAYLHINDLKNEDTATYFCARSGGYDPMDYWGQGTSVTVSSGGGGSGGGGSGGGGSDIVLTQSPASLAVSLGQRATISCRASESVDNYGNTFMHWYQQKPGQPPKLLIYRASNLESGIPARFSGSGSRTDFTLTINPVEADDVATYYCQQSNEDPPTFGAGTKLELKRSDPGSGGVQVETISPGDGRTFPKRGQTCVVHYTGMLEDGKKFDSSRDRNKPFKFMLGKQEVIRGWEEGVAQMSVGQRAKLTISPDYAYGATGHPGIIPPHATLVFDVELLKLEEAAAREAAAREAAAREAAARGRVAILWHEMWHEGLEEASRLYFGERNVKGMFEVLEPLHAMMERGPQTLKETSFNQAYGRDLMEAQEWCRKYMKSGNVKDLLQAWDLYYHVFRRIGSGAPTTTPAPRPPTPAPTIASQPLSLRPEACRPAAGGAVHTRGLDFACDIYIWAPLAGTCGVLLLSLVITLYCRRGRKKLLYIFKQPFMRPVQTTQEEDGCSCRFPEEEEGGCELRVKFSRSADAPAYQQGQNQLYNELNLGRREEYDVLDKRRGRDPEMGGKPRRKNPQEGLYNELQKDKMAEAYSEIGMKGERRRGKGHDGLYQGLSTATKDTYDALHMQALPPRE
Kind of assay: AP21967 switch-on scCAR surface detection (Fc-tagged recombinant CD123). In kind it is cell-based. The settings on record: FKBP-FRB* domains; FIG. 7. From the text:
The CAR extracellular domains (alpha chain) presented in example 2 were used as template to prepare plasmid DNA encoding single chain CARs (scCARs). The CD8 alpha transmembrane domain (SEQ ID NO: 32), the intracytoplasmic signalling region of the ζ-chain of the CD3-T cell receptor (SEQ ID NO: 28) and the signalling domains from co-stimulatory 4-1BB (CD137) (SEQ ID NO:31) were used to complete the CARs. scCARs were assemble by Golden Gate cloning using round of restriction and ligation, according to standard molecular biology procedures, leading to pCLS27572 (FKBP-FRB*) (SEQ ID NO:65), pCLS27603 (FKBP) (SEQ ID NO:66), pCLS27604 (FRB*) (SEQ ID NO:67). The respective amino acid sequences encoded by these constructs are shown in SEQ ID NOs: 68 to 70.
Primary labelling for the detection of the scCARs was performed with Fc-tagged recombinant CD123 (Lake Pharma) in PBS FBS2%, EDTA 2 mM, azide 0.1% for 20 min at 4° C. followed by a two washing steps with PBS FBS2% EDTA 2 mM azide 0.1%. […] Following the extracellular labelling, the cell viability was monitored using the efluor450 or efluor780 (ebioscience) in PBS for 20 min 4° C., followed by a washing step with PBS FBS2% EDTA 2 mM azide 0.1% and fixed in PFA 2%.

Another assay concerns MOLM13-Luc tumour cells. Description: Antitumor activity of inducible CD123 CAR+ T cells with AP21967 in NOG mice injected with MOLM13-Luc. The settings on record: switch-on mcCAR-CD123 T cells IV plus AP21967 3 mg/kg/inj IP twice daily; FIG. 11. In kind it is in vivo. On the procedure: The anti-tumor activity of human T-cells expressing a switch-on mcCAR-CD123 as described in Example 1, was assessed in NOG mice intravenously injected with MOLM13-Luc tumour cells.
To establish the MOLM13-Luc cell line, MOLM13 cells (DSMZ ACC 554) have been transduced with a lentivirus encoding the GFP and the firefly luciferase (amsbio LVP438-PBS). The GFP-positive cells have been selected with Neomycin (ref 10131-027, Gibco, Life Technologies, Saint-Aubin, France). MOLM13-Luc cells are grown in suspension at 37° C. in a humidified atmosphere (5% CO2, 95% air) into culture medium RPMI 1640 containing 2.05 mM L-glutamine (ref: BE12-702F, Lonza) supplemented with 15% fetal bovine serum (ref: 3302, Lonza, Verviers, Belgium), 100 U/mL Penicillin and 100 μg/mL Streptomycin (ref: DE17-602E, Lonza). The cells are counted in a hemocytometer and their viability is assessed by 0.25% trypan blue exclusion assay and are passed twice weekly (0.8 millions/mL) in fresh culture medium.
The day of injection to mice, frozen human T-cells transformed with the switch-on mcCAR-CD123 CAR are assessed to be within a range of 1-2.106 live cells per mL. […]
Mice were monitored daily with respect to their body weight measurements, clinical and mortality records, and treatment were recorded on Vivo Manager® database (Biosystemes, Dijon, France).

For assay [1], the system named is FKBP/FRB-mcCAR and FRB/FKBP-mcCAR constructs. Description: Rapamycin switch-on: surface detection of mcCAR with FKBP and FRB in the α-chain (flow cytometry). In kind it is cell-based. The settings on record: rapamycin 100 nM, 20 h vs no rapamycin. From the text: All constructs originated from the pCLS24707 (SEQ ID NO: 38) which encode the α-chain (SEQ ID NO: 39), β-chain (SEQ ID NO: 40) and γ-chain (SEQ ID NO: 41) of the multichain CAR (mcCAR). The sequences coding for the FRB domain (SEQ ID NO: 2) and FKBP domain (SEQ ID NO: 1) were synthetized de novo (GeneCust). The scFV, hinge-transmembrane-intracytoplasmic alpha chain domain, the FRB and the FKBP were further amplified by PCR to generate golden gate assembly compatible fragments (SEQ ID NO: 42 to 45). In addition an FRB-FKBP and an FKBP-FRB fragment were generated (SEQ ID NO: 46 to 47) using a four-EAAAR-linker (SEQ ID NO: 19) or a −GS-4x-EAAAR-linker (SEQ ID NO: 20) and standard molecular biology procedures. […]
All individual chains were amplified by PCR using oligo pairs α-chain-F/α-chain-R, β-chain-F/β-chain-R and γ-chain-F/γ-chain-R (SEQ ID NO: 56 to 61) prior to mRNA synthesis. mRNA encoding the different α-chains, β-chain, γ-chain were in vitro transcribed from the PCR product and polyadenylated using the mMessage mMachine T7 Ultra kit (Life technologies) following the manufacturer's instructions. RNAs were purified with RNeasy columns (Qiagen), eluted in cytoporation medium T and quantified by measuring absorbance at 260 nm using a Nanodrop ND-1000 spectrophotometer. […]

Another assay addresses T3, FKBP-FRB* mcCAR (Homo sapiens, UniProt P62942).
T3 construct: expressed in transfected cells; host or cells: T cells, mRNA electroporation
Description: Competition between AP21967 and tacrolimus, surface presentation of engineered CAR. In kind it is cell-based. The settings on record: AP21967 10 nM fixed, tacrolimus 0-500 nM, 20 hours.

T3 sequence (P62942 with tags, fused parts or gaps): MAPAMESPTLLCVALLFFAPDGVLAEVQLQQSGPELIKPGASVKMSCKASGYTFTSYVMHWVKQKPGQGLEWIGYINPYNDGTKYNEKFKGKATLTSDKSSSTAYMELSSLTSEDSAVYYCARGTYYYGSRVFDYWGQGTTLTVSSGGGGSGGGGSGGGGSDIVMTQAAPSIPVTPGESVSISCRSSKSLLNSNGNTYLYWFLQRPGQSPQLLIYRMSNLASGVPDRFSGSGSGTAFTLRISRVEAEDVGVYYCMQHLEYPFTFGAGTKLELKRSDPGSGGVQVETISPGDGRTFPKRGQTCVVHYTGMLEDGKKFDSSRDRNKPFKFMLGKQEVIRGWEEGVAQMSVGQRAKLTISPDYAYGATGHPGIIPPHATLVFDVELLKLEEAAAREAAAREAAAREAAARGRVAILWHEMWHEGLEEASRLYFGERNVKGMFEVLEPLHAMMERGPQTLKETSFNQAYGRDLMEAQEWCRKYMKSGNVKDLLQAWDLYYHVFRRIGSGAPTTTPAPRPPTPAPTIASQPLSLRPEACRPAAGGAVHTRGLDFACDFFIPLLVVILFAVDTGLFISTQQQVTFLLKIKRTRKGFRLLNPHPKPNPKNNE
T3 sequence (Q01362 with tags, fused parts or gaps partner limits assumed): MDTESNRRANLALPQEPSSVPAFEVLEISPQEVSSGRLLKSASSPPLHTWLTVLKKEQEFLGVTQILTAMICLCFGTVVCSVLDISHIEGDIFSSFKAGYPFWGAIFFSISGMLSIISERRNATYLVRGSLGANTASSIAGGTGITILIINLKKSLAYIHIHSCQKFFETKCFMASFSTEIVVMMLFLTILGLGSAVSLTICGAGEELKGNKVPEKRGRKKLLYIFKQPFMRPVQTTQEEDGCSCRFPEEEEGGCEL
T3 sequence (P30273 with tags, fused parts or gaps partner limits assumed): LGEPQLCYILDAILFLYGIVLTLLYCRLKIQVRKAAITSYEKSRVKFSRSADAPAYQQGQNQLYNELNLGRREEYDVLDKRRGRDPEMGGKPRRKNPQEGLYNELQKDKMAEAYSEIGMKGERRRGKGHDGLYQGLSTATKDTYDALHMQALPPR
T1 sequence (Q01362 with tags, fused parts or gaps partner limits assumed): as the sequence (Q01362 with tags, fused parts or gaps partner limits assumed) above
T1 sequence (P30273 with tags, fused parts or gaps partner limits assumed): as the sequence (P30273 with tags, fused parts or gaps partner limits assumed) above

With `CO[C@H]1[C@@H](O)[C@H](C)C[C@H](C)/C=C/C=C/C=C(\C)[C@@H](c2c[nH]c3c(C)cccc23)C[C@@H]2CC[C@@H](C)[C@@](O)(O2)C(=O)C(=O)N2CCCC[C@H]2C(=O)O[C@H]([C@H](C)C[C@@H]2CC[C@@H](O)[C@H](OC)C2)C[C@H](O)[C@H](C)/C=C(\C)[C@H]1O` [AP21967], the “surface exposition of mcCAR in presence of AP21967” value at FKBP-FRB* mcCAR CD19 (FKBP-FRB* domains in α-chain, FIG. 4) is reported as “improved surface exposition”. The “concentration of maximum signal induction” value on FKBP-FRB* mcCAR CD19 (dose response, surface detection) was found to be 100 nM. The “level of target cell killing versus AP21967 dose” value in the assay with Daudi CD19 positive (0, 1, 5, 10, 33, 100 nM, FIG. 5B) is recorded as “correlated”. For the same molecule, in the assay with Daudi CD19 positive (AP21967 100 nM vs ethanol, E/T 20:1, 5 h, FIG. 5A), the “cytolytic activity of CAR T cells in presence of AP21967” value was “improved switched-on cytolytic activity”. The EC50 with Daudi CD19 positive (FIG. 5B, read-out: EC50 of cytolytic capacity (approximate)) is around 10 nM; in the assay with Daudi CD19 positive (FIG. 5B, read-out: EC50 of cytolytic capacity (value in parentheses)) it was 12.7 nM. Besides, the “surface exposition of scCAR in presence of AP21967” value at FKBP-FRB* scCAR is listed as “improved surface exposition”. Further, in the assay on MOLM13-Luc tumour cells, the “survival of the mice” value is on record as “increased the survival”.

For `CO[C@H]1C[C@@H]2CC[C@@H](C)[C@@](O)(O2)C(=O)C(=O)N2CCCC[C@H]2C(=O)O[C@H]([C@H](C)C[C@@H]2CC[C@@H](O)[C@H](OC)C2)CC(=O)[C@H](C)/C=C(\C)[C@@H](O)[C@@H](OC)C(=O)[C@H](C)C[C@H](C)/C=C/C=C/C=C/1C` [rapamycin], in assay [1], the “improvement of surface detection considering the MFI” value is “up to 15 fold” and the “improvement of surface detection considering the percentage of positive cell” value is at most 3 fold.

`C=CC[C@@H]1/C=C(\C)C[C@H](C)C[C@H](OC)[C@H]2O[C@@](O)(C(=O)C(=O)N3CCCC[C@H]3C(=O)O[C@H](/C(C)=C/[C@@H]3CC[C@@H](O)[C@H](OC)C3)[C@H](C)[C@@H](O)CC1=O)[C@H](C)C[C@@H]2OC` [tacrolimus]: the “surface presentation/detection of the engineered CAR with increasing tacrolimus” value on FKBP-FRB* mcCAR is on record as “decreased surface detection”; at FKBP-FRB* mcCAR (listed as Tacrolimus), “possibility to tune the surface presentation”.

The record behind these values is patent publication US10988542B2, “Chimeric antigen receptors with integrated controllable functions” (CELLECTIS, priority 2015, dated 2021).
